These are literature values, as cited in US20100210643A1, “sGC STIMULATORS, sGC ACTIVATORS AND COMBINATIONS FOR THE TREATMENT OF UROLOGICAL DISORDERS” (BAYER SCHERING PHARMA AKTIENGESELLSCHAFT, priority 2007, published 2010).

The subject of data set [1] is bladder of female Guinea Pigs. As to conditions: literature (Gillespie 2004).
Data set [2] has as its system pre-contracted human prostate tissue. The following applies: in vitro; literature (Uckert 2001).

For the compound `CCCOc1ccccc1-c1nc2nn[nH]c2c(=O)[nH]1` [Zaprinast], in data set [1], the relaxation of bladder result is “ineffective”. The “relaxation of pre-contracted human prostate tissue” value in data set [2] is “able to relax”.
With `CC(C)Cn1c(=O)n(C)c(=O)c2[nH]cnc21` [IBMX], in data set [1], the relaxation of bladder result was “could relax”.
